Source: PubChem BioAssay (NCI)
Values joined by “and” are separate entries in the source; they are usually repeats but may differ in a detail not shown here. Identical values can stand only once.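 Five concentrations, 48 hours, 96-well plates. GI50 = concentration required for 50% inhibition of growth. TGI marks complete inhibition of growth.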 Where a SMILES comes first, the peptide text is derived from it. Bridges are numbered along the chain shown (N, C = ends).

Columns and labels:
Experiment in all cases: NCI tumour cell line growth inhibition, 48 h
ACHN renal = system: ACHN renal
NCI-H460 lung = system: NCI-H460 lung
OVCAR-5 ovarian = system: OVCAR-5 ovarian
OVCAR-8 ovarian = system: OVCAR-8 ovarian
SF-268 CNS = system: SF-268 CNS
SF-539 CNS = system: SF-539 CNS
SK-MEL-28 melanoma = system: SK-MEL-28 melanoma
SK-OV-3 ovarian = system: SK-OV-3 ovarian
SW-620 colon = system: SW-620 colon
TK-10 renal = system: TK-10 renal

Row | SMILES | TGI (ACHN renal) [µM] | TGI (NCI-H460 lung) | TGI (OVCAR-5 ovarian) | TGI (OVCAR-8 ovarian) | TGI (SF-268 CNS) | TGI (SF-539 CNS) | TGI (SK-MEL-28 melanoma) | TGI (SK-OV-3 ovarian) | TGI (SW-620 colon) | TGI (TK-10 renal) | GI50 (NCI-H460 lung) [µM] | GI50 (OVCAR-5 ovarian) [µM] | GI50 (OVCAR-8 ovarian) | GI50 (SF-268 CNS) [µM] | GI50 (SF-539 CNS) [µM] | GI50 (SK-MEL-28 melanoma) [µM] | GI50 (SK-OV-3 ovarian) | GI50 (SW-620 colon) | GI50 (TK-10 renal) [µM]
1 | C(=Nc1ccc(-c2nc3ccccc3s2)cc1)c1cccs1 | > 100 | > 100 µM | > 100 µM | > 100 µM | > 100 µM | > 100 µM | > 100 µM | > 100 µM | > 100 µM | 78 µM | – | – | – | – | – | – | – | – | –
2 | CCOC(=O)C1=C(N2CCCC2)C(=O)C(C(=O)OCC)C1 (centres undefined) | > 100 | > 100 µM | > 100 µM | > 100 µM | > 100 µM | > 100 µM | > 100 µM | > 100 µM | > 100 µM | > 100 µM | – | – | – | – | – | – | – | – | –
3 | O=C(Oc1cncc(Cl)c1)c1cc2ccccc2sc1=O | > 100 | > 100 µM | > 100 µM | > 100 µM | > 100 µM | 57.9 µM | > 100 µM | > 100 µM | > 100 µM | > 100 µM | – | – | – | – | – | – | – | – | –
4 | CC(C)(C1=NC(C(C)(C)C)CO1)C1=N[C@@H](C(C)(C)C)CO1 (some centres undefined) | > 100 | > 100 µM | > 100 µM | > 100 µM | > 100 µM | > 100 µM | > 100 µM | > 100 µM | > 100 µM | > 100 µM | – | – | – | – | – | – | – | – | –
5 | COC1(C)CCC(OS(C)(=O)=O)CO1 (centres undefined) | > 100 | > 100 µM | > 100 µM | > 100 µM | > 100 µM | > 100 µM | > 100 µM | > 100 µM | > 100 µM | > 100 µM | – | – | – | – | – | – | – | – | –
6 | CC(C)=CC(=O)OC1C2C(C)=CC(=O)C(O)C2(C)C2C3(O)OCC24C(CC(=O)OC14)C(C)C3O (centres undefined) | 0.443 | 0.0298 µM and 0.0334 µM | – | 0.125 µM and 0.0247 µM and 0.0683 µM | 0.049 µM and 0.014 µM and 0.091 µM | 0.0132 µM and 0.0415 µM | 0.0175 µM and 0.0363 µM | 0.709 µM and 3.74 µM | – | 0.0917 µM and 0.81 µM | 0.00788 | 0.113 | 0.0251 µM | 0.0088 | 0.02 | 0.02 | 0.549 µM | 0.0108 µM and 0.0265 µM | 0.0511
7 | C[C@@H]([C@H]1CC[C@@]2(C)[C@@H]3CC[C@@H]4C(=CC3=CC[C@]12C)CC[C@H](N(C)C)C4(C)C)N(C)C | > 100 | > 100 µM | > 100 µM | > 100 µM | > 100 µM | > 100 µM | > 100 µM | > 100 µM | > 100 µM | > 100 µM | – | – | – | – | – | – | – | – | –
8 | CN(C)Cc1cc(/C=C/C(=O)c2ccc(Br)cc2)cc(CN(C)C)c1O | 24.7 | 42.6 µM | > 100 µM | > 100 µM | 33.4 µM | 29.1 µM | 34.9 µM | 55.1 µM | 52 µM | 25.7 µM | – | – | – | – | – | – | – | – | –
9 | CCN(CC)CC[n+]1ccc2c(C)c3[nH]c4ccccc4c3c(C)c2c1 | 32.8 | 2.31 µM and 2.16 µM and 1.01 µM | 5.15 µM and 15 µM and 7.28 µM | 4.97 µM and 5.17 µM and 2.25 µM | 1.07 µM and 1.28 µM and 1.64 µM | 1.66 µM and 5.78 µM and 2.12 µM | 1.3 µM and 6.15 µM and 2.1 µM | 6.13 µM and 11.7 µM and 11.4 µM | 5.65 µM and 13.2 µM and 6.96 µM | 25.3 µM | 0.332 | 2.74 | 0.392 µM and 0.59 µM and 0.195 µM | – | 0.921 | 1.13 | 1.35 µM and 2.62 µM and 3.92 µM | 0.654 µM | –
10 | C=CC(C)(C)/C(=C\CO[Si](C(C)C)(C(C)C)C(C)C)C(=O)N(C)c1ccccc1I | 25.8 | 28.1 µM | 27.5 µM | 28 µM | 24.5 µM | 33 µM | 29.4 µM | 33.1 µM | 26.1 µM | 26.2 µM | – | – | – | – | – | – | – | – | –
11 | O=C(NC1=C(Cl)C(=O)c2ccccc2C1=O)C(=O)c1c(O)c2ccccc2oc1=O | 14 | 7.68 µM | 26.3 µM | 31 µM | 25.6 µM | 11.1 µM | 6.2 µM | 27.4 µM | > 40.9 µM | 37.7 µM | – | – | – | – | – | – | – | – | –
12 | COc1ccc(Cn2c(=O)c(OS(=O)(=O)C(F)(F)F)c(C)c3cc4ccccc4cc32)cc1 | > 100 | > 100 µM | > 100 µM | > 100 µM | > 100 µM | > 100 µM | > 100 µM | > 100 µM | > 100 µM | > 100 µM | – | – | – | – | – | – | – | – | –
13 | COC(=O)c1ccc(C)cc1C1CN=NC12Cc1cccc(C)c1C2=O (centres undefined) | > 100 | > 100 µM | > 100 µM | 47.1 µM | > 100 µM | > 100 µM | 91.8 µM | > 100 µM | > 100 µM | > 100 µM | – | – | – | – | – | – | – | – | –
14 | COC(=O)C1CCC(=O)NCCCCC(NC(=O)C(N)CC(=O)O)C(=O)N1 (stereo not drawn) (H-Asp-Lys-Glu-OMe; lactam 2-3; configuration not given here) | > 100 | > 100 µM | > 100 µM | > 100 µM | > 100 µM | > 100 µM | > 100 µM | > 100 µM | > 100 µM | > 100 µM | – | – | – | – | – | – | – | – | –
15 | O=[N+]([O-])/C(Cl)=C(\NCCO)C(Cl)=C(Cl)Cl | > 100 | > 100 µM | > 100 µM | > 92.5 µM | > 100 µM | > 100 µM | > 100 µM | > 100 µM | 77.4 µM | > 100 µM | – | – | – | – | – | – | – | – | –
16 | O=C1CC(c2cccc([N+](=O)[O-])c2)C2(C(=O)NC(=S)NC2=O)C(c2cccc([N+](=O)[O-])c2)C1 (centres undefined) | > 100 | > 100 µM | > 100 µM | 43.6 µM | 43.4 µM | > 100 µM | > 100 µM | > 100 µM | > 100 µM | 47.7 µM | – | – | – | – | – | – | – | – | –
17 | C/C(N=NS(=O)(=O)c1c(C)cc(C)cc1C)=C1\C=CC=CN1O | > 100 | > 100 µM | > 100 µM | > 100 µM | > 100 µM | > 100 µM | > 100 µM | > 100 µM | > 100 µM | > 100 µM | – | – | – | – | – | – | – | – | –
18 | CCOP(=O)(OCC)C(c1ccccc1)N(C(=O)NC(F)(F)F)c1ccc(C)cc1 (centres undefined) | > 100 | > 100 µM | > 100 µM | > 100 µM | > 100 µM | > 100 µM | > 100 µM | > 100 µM | > 100 µM | > 100 µM | – | – | – | – | – | – | – | – | –
19 | CC1(C)CC(=O)C2=C(C1)NC(=S)C(C#N)C2c1ccccc1 (centres undefined) | > 100 | > 100 µM | > 100 µM | > 100 µM | > 100 µM | > 100 µM | > 100 µM | > 100 µM | > 100 µM | > 100 µM | – | – | – | – | – | – | – | – | –
20 | CC(=O)N1CCOC12N=NC(C)(C)O2 (centres undefined) | > 100 | > 100 µM | > 100 µM | > 100 µM | > 100 µM | > 100 µM | > 100 µM | > 100 µM | > 100 µM | > 100 µM | – | – | – | – | – | – | – | – | –
21 | CC(C)=CCNc1ncnc2c1ncn2CCC(=O)O | > 100 | > 100 µM | > 100 µM | > 100 µM | > 100 µM | > 100 µM | > 100 µM | > 100 µM | > 100 µM | > 100 µM | – | – | – | – | – | – | – | – | –
22 | C=C1C(=O)OC2C[C@@]3(C)CCCC(=C)C3CC12 (some centres undefined) | 26.9 | 18.1 µM | 33.6 µM | 24.6 µM | 28.2 µM | 3.7 µM | 24 µM | 33.7 µM | 14.4 µM | 23.5 µM | – | – | – | – | – | – | – | – | –
23 | CC(C)(C)OC(=O)NCC(c1c[nH]c2ccccc12)c1c[nH]c2ccccc12 | > 100 | 30.1 µM | 31.4 µM | 34.4 µM | 33.6 µM | 35.4 µM | 35.3 µM | 33.5 µM | 41 µM | 28.9 µM | – | – | – | – | – | – | – | – | –
24 | O=C(CCC(NC(=O)OCc1ccccc1)C(=O)OCc1ccccc1)Nc1cccc(OCc2ccccc2)c1 (centres undefined) | > 100 | 53.3 µM | > 100 µM | 78.6 µM | 71 µM | 35 µM | > 100 µM | > 100 µM | > 100 µM | 90.3 µM | – | – | – | – | – | – | – | – | –
25 | O=Cn1c2ccccc2c2ccccc21 | > 100 | > 100 µM | > 100 µM | > 100 µM | > 100 µM | > 100 µM | > 100 µM | > 100 µM | > 100 µM | > 100 µM | – | – | – | – | – | – | – | – | –
26 | Cc1c2oc(=O)c(C#N)cc2c2ccccn12 | > 100 | > 100 µM | > 100 µM | > 100 µM | > 100 µM | > 100 µM | > 100 µM | > 100 µM | > 100 µM | > 100 µM | – | – | – | – | – | – | – | – | –
